Tests used:
rM3Ds = molecular target: T1, rM3Ds (Rattus norvegicus, UniProt P08483, A177S/A238G/A489L/DEL261-437/DEL441-478/E258S/I253V/I483M/INS256[…]/K178L/K182A/K255R/K484R/K486H/L173F/L482A/M480V/R171S/R176Q/R179M/S481M/T174R/T181R/T257A/Y148C); assay: Rotation behavior and nigral c-Fos in mice after unilateral nigral AAV8R12-G88P7-rM3Ds-2A-EYFP and CNO; assay type: in vivo; conditions: for contraversive rotations (FIG. 7A): AAV8R12-G88P7-rM3Ds-2A-EYFP, n=8; for rotation behavior (FIG. 7C): control vector AAV8R12-G88P7-EYFP, n=5
T1 construct: rM3Ds; 2A-EYFP (C); host or cells: AAV8R12-transduced striatal D1-MSNs of mice and cynomolgus macaques (in vivo and acute slices)
T1 sequence (P08483 other isoform, or with tags, fused parts or gaps with the stated changes): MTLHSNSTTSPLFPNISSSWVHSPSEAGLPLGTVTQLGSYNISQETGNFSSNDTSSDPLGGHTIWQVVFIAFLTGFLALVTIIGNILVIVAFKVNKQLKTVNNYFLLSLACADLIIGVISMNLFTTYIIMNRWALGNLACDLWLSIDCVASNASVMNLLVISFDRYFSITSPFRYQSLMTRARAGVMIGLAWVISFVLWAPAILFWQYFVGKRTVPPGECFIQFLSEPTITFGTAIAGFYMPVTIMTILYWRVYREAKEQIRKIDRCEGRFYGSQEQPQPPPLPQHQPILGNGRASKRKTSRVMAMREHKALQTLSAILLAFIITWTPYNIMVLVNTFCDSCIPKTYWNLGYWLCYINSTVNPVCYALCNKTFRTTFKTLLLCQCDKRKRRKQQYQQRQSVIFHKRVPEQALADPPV
Experimental: Mice were anesthetized with sodium pentobarbital (Nembutal; 80 mg/kg, i.p.), and then placed into a stereotaxic device (KOPF). Eye cream was applied on both corneas to avoid dehydration. The skull above the targeted areas was thinned with a dental drill and carefully removed. Injections were conducted with a 10 μL syringe connected to a 33-Gauge needle (Neuros; Hamilton), using a microsyringe pump (Legato 130, KD Scientific). A total volume of 200 nL virus was injected into the SNr at a speed of 20 nL/min. The coordinates for the SNr were 3.4 mm posterior, 1.3 mm lateral, 4.8 mm ventral to the bregma.
Mice that were used in the behavioral experiments were then implanted with guide cannulas (KOPF) unilaterally aiming at the dorsomedial striatum (0.5 mm anterior, 1.5 mm lateral, 3.5 mm ventral to the bregma). The cannulas were fixed to the skull with dental cement. Stainless steel obturators were inserted into the guide cannulas and were replaced every other day to maintain the patency until infusions were made. Mice were allowed to recover from the surgery for at least 3 weeks before further studies.
Mice were individually handled for 10-20 seconds per day for at least 5 days to habituate them to the experimenter. The open field test was conducted in a test apparatus (50 cm×50 cm×50 cm) with an HD digital camera (Sony) positioned above the arena. On day one, mice were habituated to the apparatus for 10 minutes. On day 2, mice were administrated saline (0.1 mL i.p. or 200 nL intracranially [i.e.] through the guide cannulas). On day 3, mice were administrated with Clozapine-N-oxide (CNO, Hello Bio, HB1807; 0.3 mg/kg i.p. or 200 nL at 100 μM i.e.). All behavioral tests were conducted 30 minutes after injection. During the test, mice were allowed to freely explore the apparatus for 10 minutes. The behavioral data were analyzed with ANY-maze software (Stoelting Co.).

hM3Dq = hM3Dq (Homo sapiens, UniProt P20309, A239G/Y149C); assay: Slice whole-cell recordings of hM3Dq-transduced MSNs; assay type: cell-based, mice; parameters: 2A-EYFP (C); host or cells: AAV8R12-transduced EYFP+ striatal MSNs in acute mouse brain slices; conditions: AAV8R12-G88P3-HA-hM3Dq-2A-EYFP; CNO 10 μM; basal firing rate and resting membrane potential unaffected
Chain of hM3Dq (P20309 whole entry Y149C/A239G): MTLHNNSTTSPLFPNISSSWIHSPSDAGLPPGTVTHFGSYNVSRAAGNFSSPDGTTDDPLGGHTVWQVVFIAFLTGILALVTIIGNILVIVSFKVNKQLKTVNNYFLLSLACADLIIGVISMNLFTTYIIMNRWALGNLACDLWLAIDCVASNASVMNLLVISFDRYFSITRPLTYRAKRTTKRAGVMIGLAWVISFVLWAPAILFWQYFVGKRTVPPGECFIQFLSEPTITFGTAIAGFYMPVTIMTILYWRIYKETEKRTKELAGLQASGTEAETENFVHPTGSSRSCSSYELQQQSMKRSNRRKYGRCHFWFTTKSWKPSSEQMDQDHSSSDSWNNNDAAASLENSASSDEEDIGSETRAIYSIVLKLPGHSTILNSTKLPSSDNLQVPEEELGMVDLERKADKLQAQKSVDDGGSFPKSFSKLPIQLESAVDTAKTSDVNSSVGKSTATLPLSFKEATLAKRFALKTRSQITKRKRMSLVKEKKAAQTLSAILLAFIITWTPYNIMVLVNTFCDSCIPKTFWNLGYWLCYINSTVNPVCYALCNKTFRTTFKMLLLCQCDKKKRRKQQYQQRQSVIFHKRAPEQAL
From the text: Mice from different groups were anesthetized with […] isoflurane, and then decapitated. The brain was quickly extracted and placed in ice-cold N-methyl-D-glucamine (NMDG) cutting solution containing (in mM): 92 NMDG, 2.5 KCl, 25 NaHCO3, 1.25 NaH2PO4, 4.5 D-Glucose, 20 HEPES, 5 L-ascorbic acid, 3 Na-pyruvate, 2 Thiourea, 10 MgSO4, 0.5 CaCl2). The pH was adjusted to 7.2±0.1 using HCl and the osmolarity was adjusted to 305±5 mosmol/L using NMDG. The solution was bubbled with 95% O2/5% CO2 prior to use. Coronal striatum slices were cut in 250-[…]m thickness with a vibratome slicer (Leica, VT1200 S), and then incubated in artificial cerebrospinal fluid (aCSF) saturated with 95% O2/5% CO2 for at least 45 min at 37° C. before recording. The aCSF contains (in mM) 125 NaCl, 1.25 KCl, 25 NaHCO3, 1.25 KH2PO4, 25 D-Glucose, 2 CaCl2) and 1 MgCl2, supplemented with 2 mM Na-pyruvate, 3 mM Myo-inositol and 0.4 mM L-ascorbic acid.
The acute striatum slice was transferred to the recording chamber with a constant perfusion of oxygenized aCSF at the rate of 3 ml/min. Neurons were visualized using an upright microscope (Olympus, BX-51) with a 40×water immersion objective at room temperature (˜25° C.). […] Neurons were quickly visualized under fluorescence microscope and then patch clamp were achieved under infrared light illumination and CCD camera. […]

C[N+]1([O-])CCN(C2=Nc3cc(Cl)ccc3Nc3ccccc32)CC1 [CNO, clozapine N-oxide]
rotations 12 months after viral infection (rM3Ds; CNO i.p., 12 months after nigral AAV8R12-G88P7-rM3Ds-2A-EYFP): consistently elevated contraversive rotations | contraversive rotations (FIG. 7A) (rM3Ds; CNO i.p., saline 45.95±4.972): 80.05±5.168 | rotation behavior (FIG. 7C) (rM3Ds; CNO i.p., saline 48.68±7.203): 46.88±7.497 | contraversive rotations (FIG. 7A) (rM3Ds; CNO intracranial, saline 58.31±4.742): 80.77±4.187 | rotation behavior (FIG. 7C) (rM3Ds; CNO intracranial, saline 41.11±12.73): 34.55±7.536 | c-Fos+ cells in the SNr (rM3Ds; CNO intraperitoneal, rM3Ds): didn't increase the number of c-Fos+ cells in the SNr | excitability of transduced MSNs (hM3Dq): augmentation of excitability

— US20250381307A1, “RETRO-AAV AND USE IN TREATING NEURODEGENERATIVE DISEASES” (priority 2023, published 2025)
